Assay results from the supplement of paper PMC11061612.

What was measured:
Experiment in all cases: combination Emax (second highest fraction inhibited in the dose matrix, 72 h); higher = more inhibition; extreme values may be limits of the assay
SN12C (Kidney Carcinoma) = tested on: SN12C (Kidney Carcinoma)
Outline: (§1)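 Cell lines grown in DMEM/F12 or RPMI with 10% FBS were plated in 1536-well plates and held 24 hours at 37°C, 5% CO2 before 72 hours of exposure to two-drug dose matrices, with DMSO typically at 0.2%. CellTiter-Glo 2.0 luminescence gave viability, which was converted to inhibition. Vehicle wells were set to 0 and blank wells to 1. Combination Emax is the second-highest inhibition in the matrix, and Bliss excess is the observed combination effect minus the expected EA + EB − EA·EB, where EA and EB are the single-agent effects.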

[1] = tested on: JiyoyeP-2003 (Burkitt's Lymphoma)
Outline: as §1

[2] = tested on: C3A (Hepatocellular Carcinoma)
Outline: as §1

[3] = tested on: IHH-4 (Thyroid Gland Carcinoma)
Outline: as §1

[4] = tested on: U-266 (Plasma Cell Myeloma)
Outline: as §1

RH-1 (Ewing's Sarcoma) = tested on: RH-1 (Ewing's Sarcoma)
Outline: as §1

J82 (Bladder Carcinoma) = tested on: J82 (Bladder Carcinoma)
Outline: as §1

[5] = tested on: NCI-H1694 (Small Cell Lung Carcinoma)
Outline: as §1

SK-N-FI (Neuroblastoma) = tested on: SK-N-FI (Neuroblastoma)
Outline: as §1

[6] = tested on: HCC2157 (Breast Carcinoma)
Outline: as §1

[7] = tested on: EM-2 (Chronic Myelogenous Leukemia)
Outline: as §1

CAL-78 (Chondrosarcoma) = tested on: CAL-78 (Chondrosarcoma)
Outline: as §1

[8] = tested on: KARPAS-620 (Plasma Cell Myeloma)
Outline: as §1

[9] = tested on: SNU-C5 (Colorectal Carcinoma)
Outline: as §1

IGR-1 (Melanoma) = tested on: IGR-1 (Melanoma)
Outline: as §1

[10] = tested on: SW756 (Cervical Carcinoma)
Outline: as §1

[11] = tested on: 697 (B-Lymphoblastic Leukemia)
Outline: as §1

[12] = tested on: TGBC24TKB (Biliary Tract Carcinoma)
Outline: as §1

[13] = tested on: CFPAC-1 (Pancreatic Carcinoma)
Outline: as §1

[14] = tested on: KATOIII (Gastric Carcinoma)
Outline: as §1

Structure (SMILES) | combination Emax (SN12C (Kidney Carcinoma)) | combination Emax [1] | combination Emax [2] | combination Emax [3] | combination Emax [4] | combination Emax (RH-1 (Ewing's Sarcoma)) | combination Emax (J82 (Bladder Carcinoma)) | combination Emax [5] | combination Emax (SK-N-FI (Neuroblastoma)) | combination Emax [6] | combination Emax [7] | combination Emax (CAL-78 (Chondrosarcoma)) | combination Emax [8] | combination Emax [9] | combination Emax (IGR-1 (Melanoma)) | combination Emax [10] | combination Emax [11] | combination Emax [12] | combination Emax [13] | combination Emax [14]
Cc1c2c(nn1C)CSCc1cc(n(C)n1)CSc1cc(c3ccccc3c1)OCCCc1c(C(=O)O)n(C)c3c-2c(Cl)ccc13 [AZD5991] + CC1(C)CCC(CN2CCN(c3ccc(C(=O)NS(=O)(=O)c4ccc(NCC5CCOCC5)c([N+](=O)[O-])c4)c(Oc4cnc5[nH]ccc5c4)c3)CC2)=C(c2ccc(Cl)cc2)C1 [Venetoclax] (first compound max 1 µM, 7x7, partner max 1 µM) | 0.21 | 0.732 | 0.181 | 0.253 | 0.97 | 0.766 | 0.164 | 0.988 | 0.65 | 0.985 | 0.975 | 0.796 | 1 | 0.204 | 0.969 | 0.185 | 1 | 0.304 | 0.143 | 0.101
CN(CCO)CC[C@H](CSc1ccccc1)Nc1ccc(S(=O)(=O)NC(=O)c2ccc(N3CCC([C@@H](O)c4ccccc4-c4ccc(Cl)cc4)CC3)cc2)cc1S(=O)(=O)C(F)(F)F [AZD4320] + C[C@@H](Nc1cc(F)cc(F)c1)c1cc(C(=O)N(C)C)cc2c(=O)cc(N3CCOCC3)oc12 [AZD8186] (first compound max 1 µM, 7x7, partner max 3 µM) | 0.331 | 0.789 | 0.632 | 0.516 | 0.481 | 0.885 | 0.282 | 0.978 | 0.395 | 0.978 | 0.959 | 0.7 | 1 | 0.399 | 0.901 | 0.373 | 1 | 0.544 | 0.424 | 0.135
CCN(CCO)CCCOc1ccc2c(Nc3cc(CC(=O)Nc4cccc(F)c4)[nH]n3)ncnc2c1 [AZD2811] + C=CCn1c(=O)c2cnc(Nc3ccc(N4CCN(C)CC4)cc3)nc2n1-c1cccc(C(C)(C)O)n1 [AZD1775] (first compound max 1 µM, partner max 1 µM) | 0.175 | 0.926 | 0.421 | 0.667 | 0.605 | 1 | 0.315 | 0.374 | 0.666 | 0.854 | 0.96 | 0.51 | 0.327 | 0.59 | 0.314 | 0.407 | 1 | 0.651 | 0.372 | 0.221
COc1nnc2ccc(N3CCC(c4ccc(OCCN5CCN(C)C(=O)[C@H]5C)cc4)CC3)nn12 [AZD5153] + CCN(CCO)CCCOc1ccc2c(Nc3cc(CC(=O)Nc4cccc(F)c4)[nH]n3)ncnc2c1 [AZD2811] (first compound max 1 µM, 7x7, partner max 1 µM) | 0.394 | 0.846 | 0.524 | 0.682 | 0.279 | 0.995 | 0.355 | 0.364 | 0.657 | 1 | 0.986 | 0.486 | 0.75 | 0.517 | 0.522 | 0.386 | 1 | 0.765 | 0.394 | 0.31
COc1cccc(OCCCN)c1-c1cc(Nc2cnc(C#N)cn2)n[nH]1 [Prexasertib] + C[C@@H]1COCCN1C2=NC(=NC(=C2)C3(CC3)[S@](=N)(=O)C)C4=C5C=CNC5=NC=C4 [AZD6738] (first compound max 1 µM, 7x7, partner max 10 µM) | 0.313 | 0.981 | 0.528 | 0.862 | 0.65 | 1 | 0.522 | 0.823 | 0.915 | 0.971 | 0.994 | 0.604 | 0.856 | 0.894 | 0.566 | 0.426 | 1 | 0.918 | 0.643 | 0.586
CC1(C)CCC(CN2CCN(c3ccc(C(=O)NS(=O)(=O)c4ccc(NCC5CCOCC5)c([N+](=O)[O-])c4)c(Oc4cnc5[nH]ccc5c4)c3)CC2)=C(c2ccc(Cl)cc2)C1 [Venetoclax] + Cc1cc2ncnn2cc1Nc1ncc2c(n1)n(C1CCOCC1)c(=O)n2C [AZD7648] (first compound max 1 µM, 7x7, partner max 10 µM) | 0.218 | 0.317 | 0.212 | 0.259 | 0.511 | 0.242 | 0.131 | 0.223 | 0.262 | 0.628 | 0.254 | 0.234 | 0.989 | 0.261 | 0.174 | 0.195 | 0.983 | 0.332 | 0.275 | 0.214
